Where two headings read alike, the source gives them in different places.
Columns and labels:
ACHN WT, RCC cells = test: Cell viability in SDH-deficient/proficient isogenic pairs; format: cell-based
Procedure: (§1) The cells were grown in DMEM F12 supplemented with 1 mM Glutamine+3% FBS were treated with different concentrations of the indicated compounds. Cell viability was determined 72 hours later by CellTiter Glue reagent (Promega), the luminescence was measured with ClarioStar reader (BMG) and the EC50s were calculated by Prism. Murine SDHB-WT/KO, HRAS transformed isogenic pair (FIG. 12A); UOK269, Human Tumor-derived SDHB-deficient RCC in their WT counterpart with re-expression of SDHB (FIG. 12B); and ACHN, RCC cells, and their SDHB-KO (SDHB CRISPRed out) isogenic cells (FIG. 12C).

[1] = tested on: ACHN SDHB −/− (SDHB CRISPRed out); test: as above; format: cell-based
Procedure: as §1

[2] = tested on: 2-DeoxyGlucose phosphorylation in murine SDH-WT cells; test: 2 DG phosphorylation assay; format: cell-based; conditions: Mus musculus, 0.25 h, 15 min, LC-MS
Procedure: IC50 of compound 145 and GluT1 inhibitor […] in a 2 DG phosphorylation assay was done using murine SDH-WT cells. The cells were treated for 15 min with the indicated compound at different concentrations in the presence of 2 DG. 2 DG phosphorylation was determined by LC-MS analysis and the inhibition IC50 was determined by Prism software.

[3] = biological target: T1, GLUT1 transporter (DLD1 cells) (Homo sapiens, UniProt P11166); test: Glucose transporter selectivity assay; format: cell-based; conditions: 5 mM glucose, 1 uM Rotenone, 15 min, read-out: IC50 (nM) DLD1-WT Glust1
T1 construct: DLD1 cells for GLUT1 transporter; endogenous in cells; host or cells: DLD1 (DLD1-WT)
T1 sequence (P11166 whole entry): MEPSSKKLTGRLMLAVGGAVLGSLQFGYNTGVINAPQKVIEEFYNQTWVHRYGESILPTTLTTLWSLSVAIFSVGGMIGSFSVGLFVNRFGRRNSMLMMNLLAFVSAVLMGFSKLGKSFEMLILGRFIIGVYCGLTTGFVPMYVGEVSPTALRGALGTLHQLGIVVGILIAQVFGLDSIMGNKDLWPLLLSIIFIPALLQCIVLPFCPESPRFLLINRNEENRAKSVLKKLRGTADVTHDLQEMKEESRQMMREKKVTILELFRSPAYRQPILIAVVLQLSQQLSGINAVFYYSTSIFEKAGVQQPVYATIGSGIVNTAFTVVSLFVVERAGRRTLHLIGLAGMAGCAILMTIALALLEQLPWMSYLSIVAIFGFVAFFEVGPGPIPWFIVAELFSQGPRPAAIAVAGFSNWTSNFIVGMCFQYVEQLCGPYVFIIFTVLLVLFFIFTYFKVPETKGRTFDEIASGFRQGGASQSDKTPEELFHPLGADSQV
Procedure: (§2) Glucose transporter selectivity assays were done as described by Siebeneicher et al (ChemMedChem 2016, 11, 1-12) with the following adjustments; DLD1 cells for GLUT1 transporter, DLD1-GLUT1−/− cells (Horizon discovery) for GLUT3 transporter and DLD1-GLUT1−/− overexpressing hGLUT2 cells for GLUT2 transporter. The cells were plated overnight in 96-well plate at 80% confluency in starvation medium (DMEM without glucose, 0.5 mM glutamine, 1 mM pyruvate and 1% FBS). The cells were then pretreated for 30 min with 1 uM Rotenone and the inhibitors (compound 145) at different concentrations. The assay was initiated by adding glucose (5 mM for DLD1 cells, 10 mM for DLD1-Glut1−/−) or fructose (10 mM for DLD1-Glut1−/−(hGLUT2) cells) and the plates were incubated for 15 min at 37° C. At the end of the incubation Cell-titer Glo was added to the wells and luminescence was measured. The inhibition IC50 was calculated using Prism software.

[4] = biological target: T2, GLUT3 transporter (DLD1-GLUT1−/− cells) (Homo sapiens, UniProt P11169); test: Glucose transporter selectivity assay; format: cell-based; conditions: 10 mM glucose, 1 uM Rotenone, 15 min, read-out: IC50 (nM) DLD-Glut1−/− Glut3
T2 construct: DLD1-GLUT1−/− cells (Horizon discovery) for GLUT3 transporter; host or cells: DLD1-GLUT1−/−
T2 sequence (P11169 whole entry): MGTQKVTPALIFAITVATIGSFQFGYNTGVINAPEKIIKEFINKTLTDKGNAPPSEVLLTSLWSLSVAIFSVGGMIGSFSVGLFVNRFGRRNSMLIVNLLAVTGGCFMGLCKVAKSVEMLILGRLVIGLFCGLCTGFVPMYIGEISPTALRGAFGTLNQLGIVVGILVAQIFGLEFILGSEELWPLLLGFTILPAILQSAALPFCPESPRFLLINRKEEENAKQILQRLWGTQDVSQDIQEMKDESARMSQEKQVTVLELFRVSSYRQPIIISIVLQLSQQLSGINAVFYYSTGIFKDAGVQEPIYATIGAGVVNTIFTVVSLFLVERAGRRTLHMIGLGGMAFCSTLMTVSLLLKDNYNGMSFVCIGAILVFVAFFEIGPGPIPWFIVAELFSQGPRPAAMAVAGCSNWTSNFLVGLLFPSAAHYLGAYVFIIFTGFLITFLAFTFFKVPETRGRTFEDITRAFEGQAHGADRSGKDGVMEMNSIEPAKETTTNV
Procedure: as §2

[5] = biological target: T3, GLUT2 transporter (DLD1-GLUT1−/− overexpressing hGLUT2 cells) (Homo sapiens, UniProt P11168); test: Glucose transporter selectivity assay; format: cell-based; conditions: 10 mM fructose, 1 uM Rotenone, 15 min, read-out: IC50 (nM) DLD-Glut1−/− (Glut2) Glut2
T3 construct: expressed in transfected cells; host or cells: DLD1-GLUT1−/−
T3 sequence (P11168 whole entry): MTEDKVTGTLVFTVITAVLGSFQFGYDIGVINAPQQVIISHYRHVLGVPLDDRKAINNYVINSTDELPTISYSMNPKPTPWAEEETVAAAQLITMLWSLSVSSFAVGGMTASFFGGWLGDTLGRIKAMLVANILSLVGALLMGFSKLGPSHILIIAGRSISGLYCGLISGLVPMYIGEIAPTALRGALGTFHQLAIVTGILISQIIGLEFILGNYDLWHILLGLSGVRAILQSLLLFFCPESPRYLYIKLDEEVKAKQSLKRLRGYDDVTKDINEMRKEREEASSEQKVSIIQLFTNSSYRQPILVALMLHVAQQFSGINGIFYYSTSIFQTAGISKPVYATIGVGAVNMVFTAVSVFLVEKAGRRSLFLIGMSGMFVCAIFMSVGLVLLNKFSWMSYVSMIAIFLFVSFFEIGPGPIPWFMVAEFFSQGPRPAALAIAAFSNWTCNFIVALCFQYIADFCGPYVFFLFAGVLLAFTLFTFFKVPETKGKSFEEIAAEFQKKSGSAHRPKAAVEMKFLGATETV
Procedure: as §2

UOK269 (SDHB-def.) RCC = test: Cell viability in SDH-deficient/proficient isogenic pairs; format: cell-based, Human
Procedure: as §1

[6] = tested on: UOK269-WT (re-expression of SDHB); test: as above; format: cell-based, Human
Procedure: as §1

[7] = tested on: SDH-KO, Murine HRAS-transformed, SDHB-deficient cells; test: Toxicity assay with or without rotenone; format: cell-based; conditions: Mus musculus, 72 hours
Procedure: (§3) Toxicity assay: Cells were growing in 96 well plates in DMEM F12 with 17 mM glucose, 0.5 mM Sodium Pyruvate, 1 mM Glutamine and 3% FBS. The cells were treated with the indicated compounds (10 different concentrations) with or without 25 nM rotenone. Viability was determined after 72 hours of treatment using CellTiter Glo reagent (Promega). EC50 was calculated using Prism software.

[8] = tested on: KG1 (Acute Myelogenous Leukemia); test: Toxicity assay with or without rotenone; format: cell-based; conditions: 72 hours
Procedure: as §3

OV-90 (Ovarian cancer) = test: Toxicity assay with or without rotenone; format: cell-based; conditions: Homo sapiens, 72 hours
Procedure: as §3

[9] = tested on: SDH-WT, Murine HRAS-transformed cells; test: Toxicity assay with or without rotenone; format: cell-based; conditions: Mus musculus, 72 hours
Procedure: as §3

[10] = tested on: THP1 (Acute Monocytic Leukemia); test: Toxicity assay with or without rotenone; format: cell-based; conditions: Homo sapiens, THP-1, 72 hours
Procedure: as §3

[11] = tested on: m+3 lactate secretion (glycolysis) in SDH-WT cells; test: Glycolysis inhibition (IC50 Lactate m+3); format: cell-based; conditions: 1 h, 25 mM 13C-glucose, one hour
Procedure: (§4) Glycolysis Inhibition (IC50 Lactate m+3)
(§5) Cell were plated in DMEM, 25 mM Glucose, 1 mM Pyruvate, 1 mM Glutamine and 10% Dialyzed serum in 96 well plates in triplicates. The day after the medium was replaced to fresh medium with 25 mM ^13C-glucose and treated with different concentrations of the compounds as indicated. One hour later the medium was collected and the level of m+3 lactate was determined by LC-MS. The IC50 of inhibition of m+3 lactate secretion into the medium was calculated with Prism.

[12] = tested on: m+3 lactate secretion (glycolysis) in SDH-KO cells; test: Glycolysis inhibition (IC50 Lactate m+3); format: cell-based; conditions: 1 h, 25 mM 13C-glucose, one hour
Procedure: as §4, §5

[13] = Homo sapiens, cancer cells, 72 hours
[14] = Homo sapiens, tumor-derived, 72 hours
[15] = with 25 nM rotenone, read-out: EC50 (nM) with Rotenone
[16] = without rotenone, read-out: EC50

For `CC1(C)Cc2nc3sc4c(NCCc5ccc6[nH]cnc6c5)ncnc4c3cc2CO1` [Compound 145], the “Ratio BAY-876/COMP 145” value (ACHN WT, RCC cells) was 1.7, the EC50 (ACHN WT, RCC cells; [13]) was 13.8 µM and the “Ratio BAY-876/COMP 145” value [1] was 30. The EC50 [1, 13] was 8.4 nM, the IC50 [2] was 9.7 nM and the IC50 [3] was 19 nM. For the same molecule, the IC50 [4] was 2 nM, the IC50 [5] was 14 nM and the “Ratio BAY-876/COMP 145” value (UOK269 (SDHB-def.) RCC) was 8.8. For the same molecule, the EC50 (UOK269 (SDHB-def.) RCC; [14]) was 1.7 nM, the “Ratio BAY-876/COMP 145” value [6] was 2.9 and the EC50 [6, 14] was 1830 nM. For the same molecule, the EC50 [7, 15] was 3 nM, the EC50 [7, 16] was 3 nM and the EC50 ([8]; KG1, with 25 nM rotenone, read-out: EC50 (nM) with Rotenone) was 16 nM. It also gave an EC50 ([8]; KG1, without rotenone, read-out: EC50) of 3200 nM, an EC50 (OV-90 (Ovarian cancer); OV-90, with 25 nM rotenone, read-out: EC50 (nM) with Rotenone) of 15 nM and an EC50 (OV-90 (Ovarian cancer); OV-90, without rotenone, read-out: EC50) of 825 nM. The EC50 [9, 15] was 3 nM, the EC50 [9, 16] was 210 nM and the EC50 ([10]; THP1, with 25 nM rotenone, read-out: EC50 (nM) with Rotenone) was 16 nM. The EC50 ([10]; THP1, without rotenone, read-out: EC50) was 1100 nM, the IC50 [11] was 1.7 nM and the IC50 [12] was 6.1 nM.

Source: US20230084927A1, “GLUCOSE UPTAKE INHIBITORS AND USES THEREOF” (METABOMED LTD., priority 2019, published 2023)
